The results in this text go back to US12492410B2, “Engineered cytolytic immunecell” (Autolus Limited, priority 2018, dated 2025).

In one assay the test system is HEK293T cells. The assay is described as follows: Minocycline induced secretion of ER retained IL12, IL12 ELISA of supernatant. Conditions: IL12 fused to the peptide, in the presence of KDEL anchored minocycline dAb; minocycline 0 μM; all time points (2 and 4 hours). The assay is classed as cell-based. The protocol: FIGS. 5A, 5B and 5C—Minocycline induced secretion of ER retained IL12 HEK293T cells were transiently transfected with constructs expressing the intracellular KDEL tagged anti-minocycline dAb and dAb-specific peptide (GWARA or PWAYS) tagged IL-12 (A). Transfection efficiency determined by staining for HA marker expression with transfection efficiency ranging from 50-70% (B). […] Supernatant was collected 2 and 4 hours post minocycline addition and IL12 ELISA readout carried out (C).
The KDEL amino acid sequence was used to retain proteins within the ER/Golgi apparatus. The minocycline specific dAb was tagged with the KDEL sequence (SEQ ID NO: 29) thus anchoring it within with the ER/Golgi and a molecule of interest (IL12) is in turn tagged with the peptide with affinity to the dAb causing its retention. Upon addition of minocycline, the dAb-peptide complex dissociates enabling secretion of the peptide-tagged molecule.
HEK293T cells were seeded at […] in 96-well plates to achieve confluency of 50-60% for next day transfection. A transfection master mix was made by adding 30 μL of GeneJuice transfection reagent to 470 μL plain IMDM and incubating for 5 minutes. For each well, 0.13 μg of plasmid DNA was then added to 5.2 uL of the IMDM-Genejuice master mix and incubated for 15 minutes. Transfection mix containing the GeneJuice-DNA complex was then added to the cells. […]

For assay [1], the system named is minocycline dAb (SEQ ID NO: 8). The assay is described as follows: Phage-peptide screening for minocycline-displaceable binding to minocycline dAb. Conditions: for displaceable specificity for minocycline dAb: minocycline dAb-Fc immobilised on beads, with and without 1 μM minocycline, control antibody SEQ ID NO: 13; for affinity of peptide for minocycline dAb: stated in words. As to the method:
FIG. 4—Graphs showing minocycline displaceable binding of peptides SEQ ID NO: 34, SEQ ID NO: 35, SEQ ID NO: 36 and SEQ ID NO: 37 to minocycline dAb (SEQ ID NO: 8) versus control antibody (SEQ ID NO: 13).
A minocycline dAb-Fc was immobilised on beads. The minocycline dAb was encoded by SEQ ID NO: 8. Phage-peptide colony screening was performed with and without 1 μM minocycline.
An antibody comprising SEQ ID NO: 13 was used as a control antibody (the control antibody comprises different CDRs to SEQ ID NO: 8).

minocycline dAb (SEQ ID NO: 8), sequence (as listed by the source): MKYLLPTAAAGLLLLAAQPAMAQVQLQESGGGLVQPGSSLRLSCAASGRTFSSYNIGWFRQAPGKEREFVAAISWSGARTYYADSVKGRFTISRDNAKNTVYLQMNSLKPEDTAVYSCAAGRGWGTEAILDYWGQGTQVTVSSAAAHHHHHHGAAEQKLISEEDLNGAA

Consider “ACPGWARAFC (minocycline peptide mimic) [SEQ ID NO: 34]”, for which the IL12 secretion entry in the assay with HEK293T cells was “concentration dependent increase”. In assay [1], the “displaceable specificity for minocycline dAb” value is “displaceable specificity” and the “affinity of peptide for minocycline dAb” value is listed as “high affinity”.
With “ACPHWAQAFC (minocycline peptide mimic) [SEQ ID NO: 35]”, in assay [1], the “displaceable specificity for minocycline dAb” value is given as “displaceable specificity”.
Regarding “ACPPWAYSFC (minocycline peptide mimic) [SEQ ID NO: 37]”, in the assay on HEK293T cells, the IL12 secretion entry is “concentration dependent increase”. Also, in assay [1], the “displaceable specificity for minocycline dAb” value is reported as “displaceable specificity” and the “affinity of peptide for minocycline dAb” value is reported as “low affinity”.
On to “ACPQWAMMFC (minocycline peptide mimic) [SEQ ID NO: 36]”, for which the “displaceable specificity for minocycline dAb” value in assay [1] is listed as “displaceable specificity”.
